Results: patent US11401295B2, “Cyclic dinucleotide compound and uses thereof” (SHANGHAI JEMINCARE PHARMACEUTICALS CO., LTD., priority 2018, dated 2022)
Read-outs that look alike come from different tables or passages of the source.

How the values were obtained:
[1] = tested on: IRF3 pathway in THP1-Dual cells; experiment: THP1-Dual reporter gene activity assay (Lucia luciferase, QUANTI-Luc); format: cell-based, human
Description: THP1-Dual™ cells (InvivoGen catalog code: thpd-nfis) used in the test were constructed by stably integrating two inducible reporter genes into the human monocyte cell line THP1. The promoter sequence composition of the secretory embryonic alkaline phosphatase (SEAP) reporter gene consists of an IFN-β primary promoter and five copies of the upstream NF-κB co-expression transcriptional response element and three copies of the c-Rel binding site. The secretory luciferase (Lucia) reporter gene is driven by five interferon (IFN)-stimulated response elements and a basic promoter of ISG54. This made it possible to study simultaneously the two major downstream signaling pathways of STING: the NF κB pathway by detecting SEAP activity: and the IRF pathway by evaluating the activity of Lucia luciferase.
The compounds were diluted with PB buffer (50 mM HEPES, 100 mM KCl, 3 mM MgCl2, 0.1 mM DTT, 85 mM Sucrose, 1 mM ATP, 0.1 mM GTP, 0.20% BSA). 20 μL of the reference or tested compound was added to each well in a 96-well plate, followed by 180 μL of THP1-Dual cells (approximately 100,000 cells/well) suspended in PB buffer. The plate was incubated for 30 minutes at 37° C. under […], and centrifuged at 1000 rpm for 10 minutes. The supernatant was discarded. […] The supernatants were collected and QUANTI-Luc™ was used to quantify the activation of the IRF3 pathway according to the manufacturer's instructions.

[2] = tested on: IRF3 pathway in RAW-Dual cells (RAW264.7); experiment: Raw-Dual reporter gene activity assay (luciferase, QUANTI-Luc); format: cell-based, mouse
Description: The RAW-Dual™ cells used in the test (InvivoGen catalog code: rawd-ismip) were constructed by stably integrating two inducible reporter genes in mouse macrophage cell line RAW264.7. The NF-KB pathway was studied by detecting SEAP activity and the IRF3 pathway was studied by evaluating the activity of luciferase. […] On the second day, the culture medium was discarded, and 200 μL of compound solution prepared in advance with the culture medium was added into each well followed by incubation at room temperature for 30 minutes. After the treatment medium was sucked out, it was washed twice with serum-free culture medium, and 200 μL of culture medium was added into each well, followed by incubation in an incubator at 37° C. for 18-24 hours. On the third day, 20 μL of supernatant was collected per well and QUANTI-Luc™ was used to quantify the activation of IRF3 pathway according to the manufacturer's instructions.

[3] = Mus musculus, RAW264.7, read-out: Raw, EC50
[4] = THP1-Dual cells, IRF3 pathway (Lucia), 30 min treatment, 18 hours incubation, read-out: EC50

Compound | EC50 [2, 3] | EC50 [1] | EC50 ([2]; read-out: Raw, EC50) | further results
BP1(=O)OC[C@H]2O[C@@H](n3cnc4c(N)ncnc43)C(O)[C@H]2OP(=O)(S)OC[C@H]2O[C@@H](n3cnc4c(N)ncnc43)[C@@H](F)C2O1 (stereo partly drawn) [Compound 1A] | – | – | – | EC50 ([1]; Homo sapiens, THP1-Dual): 74.7 µM
BP1(=O)OC[C@H]2O[C@@H](n3cnc4c(N)ncnc43)[C@@H](F)C2OP(B)(=O)OC[C@H]2O[C@@H](n3cc(F)c4c(=O)[nH]cnc43)[C@@H](O)C2O1 (single isomer, unassigned) [Compound 3C] | 9.4 µM | 47.2 µM | – | –
BP1(=O)OC[C@H]2O[C@@H](n3cc(F)c4c(=O)[nH]cnc43)[C@@H](F)C2OP(B)(=O)OC[C@H]2O[C@@H](n3cnc4c(N)ncnc43)[C@@H](F)C2O1 (single isomer, unassigned) [Compound 6A] | – | 1.36 µM | – | –
BP1(=O)OC[C@H]2O[C@@H](n3cnc4c(N)ncnc43)C(O)[C@H]2OP(=O)(S)OC[C@H]2O[C@@H](n3cnc4c(N)ncnc43)C(F)[C@H]2O1 (single isomer, unassigned) [Compound 1C] | 41.4 µM | 16.8 µM | – | –
Nc1nc2c(ncn2[C@@H]2O[C@@H]3COP(=O)(O)O[C@H]4[C@@H](O)[C@H](n5cnc6c(N)ncnc65)O[C@@H]4COP(=O)(O)O[C@@H]2[C@@H]3O)c(=O)[nH]1 [2′,3′-cGAMP, (2′ 3′) cyclic guanosine monophosphate-adenosine monophosphate, reference compound] | – | – | – | EC50 [1, 4]: 20.2 µM
BP1(=O)OC[C@H]2O[C@@H](n3cnc4c(N)ncnc43)[C@@H](F)C2OP(B)(=O)OC[C@H]2O[C@@H](n3cc(F)c4c(=O)[nH]cnc43)[C@@H](O)C2O1 (single isomer, unassigned) [Compound 3B] | – | – | – | EC50 ([1]; Homo sapiens, THP1-Dual): 42.2 µM
BP1(=O)OC[C@@]23COC([C@H](n4cnc5c(N)ncnc54)O2)[C@H]3OP(B)(=O)OC[C@H]2O[C@@H](n3cnc4c(N)ncnc43)[C@@H](F)C2O1 (single isomer, unassigned) [Compound 5C] | – | – | 28.2 µM | –
BP1(=O)OC[C@H]2O[C@@H](n3cc(F)c4c(=O)[nH]cnc43)[C@@H](F)C2OP(B)(=O)OC[C@H]2O[C@@H](n3cnc4c(N)ncnc43)[C@@H](F)C2O1 (single isomer, unassigned) [Compound 6D] | – | 12.3 µM | 9.5 µM | –
BP1(=O)OC[C@@]23COC([C@H](n4cnc5c(N)ncnc54)O2)[C@H]3OP(B)(=O)OC[C@H]2O[C@@H](n3cnc4c(N)ncnc43)[C@@H](F)C2O1 (single isomer, unassigned) [Compound 5A] | – | 6.2 µM | – | –
BP1(=O)OC[C@H]2O[C@@H](n3cc(F)c4c(=O)[nH]cnc43)[C@@H](F)C2OP(B)(=O)OC[C@H]2O[C@@H](n3cnc4c(N)ncnc43)[C@@H](F)C2O1 (single isomer, unassigned) [Compound 6B] | – | 9.31 µM | 5.4 µM | –
BP1(=O)OC[C@H]2O[C@@H](n3cnc4c(N)ncnc43)C(O)[C@H]2OP(=O)(S)OC[C@H]2O[C@@H](n3cnc4c(N)ncnc43)C(F)[C@H]2O1 (single isomer, unassigned) [Compound 1D] | – | 7.48 µM | 24.4 µM | –
BP1(=O)OC[C@H]2O[C@@H](n3cnc4c(N)ncnc43)[C@@H](F)C2OP(B)(=O)OC[C@H]2O[C@@H](n3cc(F)c4c(=O)[nH]cnc43)[C@@H](O)C2O1 (single isomer, unassigned) [Compound 3D] | – | 26.1 µM | 10 µM | –
BP1(=O)OC[C@H]2O[C@@H](n3cnc4c(N)ncnc43)C(O)[C@H]2OP(=O)(S)OC[C@H]2O[C@@H](n3cnc4c(N)ncnc43)C(F)[C@H]2O1 (stereo partly drawn) [Compound 1B] | 15.8 µM | – | – | EC50 ([1]; Homo sapiens, THP1-Dual): 7.38 µM
BP1(=O)OC[C@@]23COC([C@H](n4cnc5c(N)ncnc54)O2)[C@H]3OP(B)(=O)OC[C@H]2O[C@@H](n3cnc4c(N)ncnc43)[C@@H](F)C2O1 (single isomer, unassigned) [Compound 5D] | 31.6 µM | 12.6 µM | – | –
BP1(=O)OC[C@H]2O[C@@H](n3cnc4c(N)ncnc43)C(F)[C@H]2OP(B)(=O)OC[C@H]2O[C@@H](n3cnc4c(N)ncnc43)[C@@H](F)C2O1 (stereo partly drawn) [Compound 2A] | 23.4 µM | – | – | EC50 ([1]; Homo sapiens, THP1-Dual): 1.75 µM
BP1(=O)OC[C@@]23COC([C@H](n4cnc5c(N)ncnc54)O2)[C@H]3OP(B)(=O)OC[C@H]2O[C@@H](n3cnc4c(N)ncnc43)[C@@H](F)C2O1 (single isomer, unassigned) [Compound 5B] | 54.8 µM | – | – | EC50 ([1]; Homo sapiens, THP1-Dual): 11.4 µM
BP1(=O)OC[C@H]2O[C@@H](n3cc(F)c4c(=O)[nH]cnc43)[C@@H](F)C2OP(B)(=O)OC[C@H]2O[C@@H](n3cnc4c(N)ncnc43)[C@@H](F)C2O1 (single isomer, unassigned) [Compound 6C] | – | 2.31 µM | 1.1 µM | –
Nc1ncnc2c1ncn2[C@@H]1O[C@@H]2COP(=O)(S)O[C@@H]3[C@H](O)[C@@H](COP(O)(=S)O[C@H]2[C@H]1O)O[C@H]3n1cnc2c(N)ncnc21 (stereo partly drawn) [ADU-S100, reference compound] | – | – | – | EC50 ([2]; RAW-Dual cells, IRF3 pathway, 30 min treatment, 18-24 hours incubation, read-out: Raw, EC50): 47.1 µM; EC50 [1, 4]: 23.4 µM
